For data set [1], the target named is T1, FAK kinase (Homo sapiens, UniProt Q05397).
T1 construct: purchased Promega Corporation V9301
As to the kind of experiment: ADP-Glo kinase enzymatic assay. The class given is biochemical. Particulars: mean ± SD of three independent experiments. The method, then: The ADP-Glo™ Kinase Assay Kit and FAK Kinase Enzyme (Catalog. V9301) were purchased from Promega Corporation (Madison, WI, USA). The experiments were performed according to the detailed and complete protocols of the manufacturer. Briefly, the concentration of FAK determined by optimization experiments was 0.1 μg/μL. Suitable concentration gradients from 1.6 to 1000 nM were set for all the tested compounds. A kinase reaction buffer, a substrate/ATP mixture, and a FAK solution were prepared right before use. The 5 μL kinase reaction consisted of 1 μL of compound solution, 2 μL of substrate/ATP mixture, and 2 μL of FAK solution. The control without enzyme was provided by 3 μL of kinase reaction buffer and 2 μL of substrate/ATP mixture. The negative control was prepared using 1 μL of kinase reaction buffer instead of a compound solution. The kinase reactions were added to a 384-well plate and incubated at room temperature for 60 min, then 5 μL of ADP-Glo™ Reagent was added to stop the kinase reaction and deplete the unconsumed ATP, and incubated at room temperature for 40 min. After adding 10 μL of Kinase Detection Reagent, the plate was incubated at room temperature for 30 min and then luminescence was recorded (integration time 0.5–1 s) on a TriStar® LB942 Multimode Microplate Reader (BERTHOLD TECHNOLOGIES GmbH & Co. KG., Bad Wildbad, Germany). Curve fitting and data presentations were performed using GraphPad Prism version 8.0.

Data set [2] concerns H1975 non-small cell lung cancer (NSCLC) cells. The data set can be described thus: CCK-8 cell viability assay, H1975. The class given is cell-based. Conditions: Homo sapiens, NCI-H1975, CCK-8, 72 h, mean ± SD of three experiments, read-out: Antiproliferative Activity IC50, H1975. The method, then: (§1) The H1975 human NSCLC cell line was obtained from ATCC. A431 human epithelial carcinoma and HBE human bronchial epithelial cell lines were kind gifts from Fuheng Biological Company Ltd. (Shanghai, China) and YuXi Biotech Company (Jiangsu, China), respectively. The cells were maintained in RPMI 1640 or DMEM (Gibco®, Thermo Fisher Scientific Inc., Waltham, MA, USA) containing 10% fetal bovine serum (FBS, Gibco®) and 1% penicillin-streptomycin (Beyotime Company, Shanghai, China) at 37 °C in a 5% CO2 incubator.
(§2) A total of 3000 cells of H1975 or HBE and 5000 cells of A431 were seeded for each well into a 96-well plate and cultured in 10% FBS respective growth medium overnight. Various concentrations (0–20 μM) of each compound were then added in triplicate to the cells. After 72 h of incubation, 10 μL of CCK-8 solution (5.0 mg/mL, Biotool Company, Kirchberg, Switzerland) was added to each well and the cells continued to culture for 4 h. The optical density (OD) was determined at 450 nm with a microplate reader (Thermo Fisher Scientific, Waltham, MA, USA). IC50 values were calculated employing GraphPad Prism version 8.0.
(Tetrazolium dyes change colour on reduction, which living cells bring about.)

Data set [3] concerns A431 human epithelial carcinoma cells. The data set can be described thus: CCK-8 cell viability assay, A431. In kind it is cell-based. Conditions: A-431, CCK-8, 72 h, mean ± SD of three experiments, read-out: Antiproliferative Activity IC50, A431. The method, then:
as §1, §2

Data set [4] concerns normal human bronchial epithelial cells (HBE). The data set can be described thus: CCK-8 cellular selectivity assay, HBE. The class given is cell-based. Particulars: for IC50: Homo sapiens, Epithelial cell, HBE normal cells, CCK-8, 72 h, mean ± SD of three experiments, read-out: Antiproliferative Activity IC50, HBE; for SI Values (selectivity index): IC50 for HBE cell line/IC50 for H1975 cell line. The method, then: as §1, §2

Molecules are shown by their SMILES.

T1 sequence (Q05397 393-698 limits assumed): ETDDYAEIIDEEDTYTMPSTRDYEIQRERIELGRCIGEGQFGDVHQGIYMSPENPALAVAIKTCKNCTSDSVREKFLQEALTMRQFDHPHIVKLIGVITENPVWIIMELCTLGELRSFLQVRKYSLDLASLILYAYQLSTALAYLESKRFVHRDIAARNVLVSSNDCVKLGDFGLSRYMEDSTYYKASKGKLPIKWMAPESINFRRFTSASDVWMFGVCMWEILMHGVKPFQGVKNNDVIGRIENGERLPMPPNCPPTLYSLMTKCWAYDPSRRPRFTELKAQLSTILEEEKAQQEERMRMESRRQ

Turning to `O=C(NCCCO)c1ccccc1Nc1nc(Nc2ccc(CN3CCOCC3)cc2)ncc1Cl` [Compound 8b, 2-((5-Chloro-2-((4-(morpholinomethyl)phenyl)amino)pyrimidin-4-yl)amino)-N-(3-hydroxypropyl)benzamide], the IC50 (commonly the midpoint of a concentration-inhibition curve) in data set [1] came to 61 ± 9 nM; in data set [2], 75 ± 11 nM; in data set [3], 207 ± 36 nM; in data set [4], 1150 ± 283 nM. For the same molecule, in data set [4], the “SI Values (selectivity index)” value is reported as 15.
`CC(O)CNC(=O)c1ccccc1Nc1nc(Nc2ccc(CN3CCOCC3)cc2)ncc1Cl` (centres unmarked) [Compound 8c, 2-((5-Chloro-2-((4-(morpholinomethyl)phenyl)amino)pyrimidin-4-yl)amino)-N-(2-hydroxypropyl)benzamide]: the half-maximal inhibitory concentration (IC50) in data set [1] is 30 ± 7 nM; in data set [2], 119 ± 47 nM; in data set [3] it was 158 ± 27 nM; in data set [4], 4010 ± 231 nM. Also, the “SI Values (selectivity index)” value in data set [4] was determined as 34.
Regarding `CN(CCO)C(=O)c1ccccc1Nc1nc(Nc2ccc(CN3CCOCC3)cc2)ncc1Cl` [Compound 8d, 2-((5-Chloro-2-((4-(morpholinomethyl)phenyl)amino)pyrimidin-4-yl)amino)-N-(2-hydroxyethyl)-N-methylbenzamide], the half-inhibitory concentration (IC50) came out at 40 ± 11 nM in data set [1], 293 ± 50 nM in data set [2], 161 ± 82 nM in data set [3] and 3820 ± 500 nM in data set [4]. In addition, in data set [4], the “SI Values (selectivity index)” value is given as 13.
For `O=C(c1ccccc1Nc1nc(Nc2ccc(CN3CCOCC3)cc2)ncc1Cl)N1CCC(O)CC1` [Compound 8e] the same measures were 129 ± 37 nM, 1410 ± 132 nM, 238 ± 98 nM, 435 ± 45 nM and 0.3.
With `O=C(c1ccccc1Nc1nc(Nc2ccc(CN3CCOCC3)cc2)ncc1Cl)N1CCC(CO)CC1` [Compound 8f], the IC50 in data set [1] was 173 ± 23 nM; in data set [2] it was 2220 ± 261 nM; in data set [3] it was 195 ± 97 nM; in data set [4], 862 ± 125 nM. The “SI Values (selectivity index)” value in data set [4] was 0.4.
For `O=C(NCCCCCCO)c1ccccc1Nc1nc(Nc2ccc(CN3CCOCC3)cc2)ncc1Cl` [Compound 8g, 2-((5-Chloro-2-((4-(morpholinomethyl)phenyl)amino)pyrimidin-4-yl)amino)-N-(6-hydroxyhexyl)benzamide] the same measures were 198 ± 32 nM, 287 ± 61 nM, 507 ± 19 nM, 1640 ± 813 nM and 6.
As to `O=C(NCC(O)CO)c1ccccc1Nc1nc(Nc2ccc(CN3CCOCC3)cc2)ncc1Cl` (centres unmarked) [Compound 8h, 2-((5-Chloro-2-((4-(morpholinomethyl)phenyl)amino)pyrimidin-4-yl)amino)-N-(2,3-dihydroxypropyl)benzamide], the half-maximal inhibitory concentration (IC50) was found to be 72 ± 7 nM in data set [1], 219 ± 82 nM in data set [2], 47 ± 6 nM in data set [3] and 688 ± 121 nM in data set [4]. The “SI Values (selectivity index)” value in data set [4] amounted to 3.
Take `CCC(C)C(CO)NC(=O)c1ccccc1Nc1nc(Nc2ccc(CN3CCOCC3)cc2)ncc1Cl` (centres unmarked) [Compound 8i, 2-((5-Chloro-2-((4-(morpholinomethyl)phenyl)amino)pyrimidin-4-yl)amino)-N-(1-hydroxy-3-methylpentan-2-yl)benzamide]: the half-maximal inhibitory concentration (IC50) was 126 ± 21 nM in data set [1], 815 ± 61 nM in data set [2], 1240 ± 909 nM in data set [3] and above 20000 nM in data set [4]. Moreover, the “SI Values (selectivity index)” value in data set [4] is on record as above 24.
`O=C(NCCOc1no[n+]([O-])c1S(=O)(=O)c1ccccc1)c1ccccc1Nc1nc(Nc2ccc(CN3CCOCC3)cc2)ncc1Cl` [Compound 9a, 4-(2-(2-((5-Chloro-2-((4-(morpholinomethyl)phenyl)amino)pyrimidin-4-yl)amino)benzamido)ethoxy)-3-(phenylsulfonyl)-1,2,5-oxadiazole 2-oxide]: the melting point (as a rule, the temperature, or range, at which the solid turns liquid) is 174 to 176 °C. In data set [1], the 50% inhibitory concentration (IC50) is 149 ± 33 nM. Further, the half-maximal inhibitory concentration (IC50) in data set [2] amounted to 47 ± 9 nM. The IC50 in data set [3] was determined as 182 ± 32 nM. Moreover, in data set [4], the IC50 came to 916 ± 92 nM and the “SI Values (selectivity index)” value came out at 19.
Regarding `O=C(NCCCOc1no[n+]([O-])c1S(=O)(=O)c1ccccc1)c1ccccc1Nc1nc(Nc2ccc(CN3CCOCC3)cc2)ncc1Cl` [Compound 9b, 4-(3-(2-((5-Chloro-2-((4-(morpholinomethyl)phenyl)amino)pyrimidin-4-yl)amino)benzamido)propoxy)-3-(phenylsulfonyl)-1,2,5-oxadiazole 2-oxide], the melting point was 144 to 146 °C. In data set [1], the IC50 came to 338 ± 38 nM. The half-inhibitory concentration (IC50) in data set [2] came to 164 ± 51 nM. In addition, in data set [3], the 50% inhibitory concentration (IC50) was found to be 138 ± 31 nM. For the same molecule, in data set [4], the IC50 was determined as 2080 ± 366 nM and the “SI Values (selectivity index)” value turned out to be 13.
In the case of `CC(CNC(=O)c1ccccc1Nc1nc(Nc2ccc(CN3CCOCC3)cc2)ncc1Cl)Oc1no[n+]([O-])c1S(=O)(=O)c1ccccc1` (centres unmarked) [Compound 9c, 4-((1-(2-((5-Chloro-2-((4-(morpholinomethyl)phenyl)amino)pyrimidin-4-yl)amino)benzamido)propan-2-yl)oxy)-3-(phenylsulfonyl)-1,2,5-oxadiazole 2-oxide], the melting point is 187 to 189 °C. Further, the IC50 in data set [1] amounted to 89 ± 14 nM. Also, in data set [2], the IC50 is 567 ± 86 nM. For the same molecule, in data set [3], the half-inhibitory concentration (IC50) is 1070 ± 154 nM. In addition, in data set [4], the IC50 was 2420 ± 546 nM and the “SI Values (selectivity index)” value worked out at 4.
On to `CN(CCOc1no[n+]([O-])c1S(=O)(=O)c1ccccc1)C(=O)c1ccccc1Nc1nc(Nc2ccc(CN3CCOCC3)cc2)ncc1Cl` [Compound 9d, 4-(2-(2-((5-Chloro-2-((4-(morpholinomethyl)phenyl)amino)pyrimidin-4-yl)amino)-N-methylbenzamido)ethoxy)-3-(phenylsulfonyl)-1,2,5-oxadiazole 2-oxide], for which the melting point fell in the range of 169 to 171 °C. The molecule also showed an IC50 in data set [1] of 66 ± 14 nM. For the same molecule, in data set [2], the IC50 is 1090 ± 137 nM. Besides, the IC50 in data set [3] was determined as 2740 ± 206 nM. In addition, in data set [4], the IC50 was found to be 4550 ± 533 nM and the “SI Values (selectivity index)” value is reported as 4.
Consider `O=C(c1ccccc1Nc1nc(Nc2ccc(CN3CCOCC3)cc2)ncc1Cl)N1CCC(Oc2no[n+]([O-])c2S(=O)(=O)c2ccccc2)CC1` [Compound 9e, 4-((1-(2-((5-Chloro-2-((4-(morpholinomethyl)phenyl)amino)pyrimidin-4-yl)amino)benzoyl)piperidin-4-yl)oxy)-3-(phenylsulfonyl)-1,2,5-oxadiazole 2-oxide], for which the melting point is 130 to 132 °C. Moreover, the IC50 in data set [1] was above 1000 nM. Also, the IC50 in data set [2] was found to be 1720 ± 295 nM. In addition, the IC50 in data set [3] came out at 2410 ± 587 nM. Further, in data set [4], the concentration for half-maximal inhibition (IC50) was determined as 763 ± 100 nM and the “SI Values (selectivity index)” value was found to be 0.4.
`O=C(c1ccccc1Nc1nc(Nc2ccc(CN3CCOCC3)cc2)ncc1Cl)N1CCC(COc2no[n+]([O-])c2S(=O)(=O)c2ccccc2)CC1` [Compound 9f, 4-((1-(2-((5-Chloro-2-((4-(morpholinomethyl)phenyl)amino)pyrimidin-4-yl)amino)benzoyl)piperidin-4-yl)methoxy)-3-(phenylsulfonyl)-1,2,5-oxadiazole 2-oxide] showed a melting point of 109 to 111 °C. Also, the IC50 in data set [1] was 300 ± 9 nM. The IC50 in data set [2] came to 1570 ± 265 nM. Also, the IC50 in data set [3] amounted to 1740 ± 305 nM. Further, in data set [4], the half-maximal inhibitory concentration (IC50) stood at 3760 ± 1600 nM and the “SI Values (selectivity index)” value is given as 2.
On to `C=CC(=O)Nc1cc(Nc2nccc(-c3cn(C)c4ccccc34)n2)c(OC)cc1N(C)CCN(C)C` [Osimertinib, osimertinib, reference compound], for which the 50% inhibitory concentration (IC50) in data set [2] was found to be 116 ± 32 nM; in data set [3], 988 ± 119 nM; in data set [4] it was 1210 ± 177 nM. Also, the “SI Values (selectivity index)” value in data set [4] was 10.

(Values after article PMC8304610, “Discovery of Novel 2,4-Dianilinopyrimidine Derivatives Containing 4-(Morpholinomethyl)phenyl and N-Substituted Benzamides as Potential FAK Inhibitors and Anticancer Agents” (Molecules, 2021).)
